# Laboratory results reported in the supplement of paper PMC10733146.
# Columns and labels:
# Experiment in all cases: viability relative to DMSO control (fraction); higher = less drug effect (more viable cells)
# Conditions in all cases: 48 h
# [1] = system: primary AML patient cells (S071)
# Summary of the method: (§1)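 In 384-well plates with compounds pre-plated at five concentrations (one well per concentration), primary mononuclear tumour cells were plated at 4 × 10^4 cells per well. The cells came from blood or bone marrow by Ficoll isolation or from processed lymph node, and were used fresh or cryopreserved. Culture ran for 48 h at 37 °C and 5% CO2 in RPMI-1640 containing penicillin/streptomycin, L-glutamine and human serum. Viability was read as CellTiter-Glo luminescence, normalised to the median of 16 inner DMSO wells.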
# [2] = system: primary AML patient cells (S081)
# Summary of the method: as §1
# [3] = system: primary AML patient cells (S037)
# Summary of the method: as §1
# [4] = system: primary AML patient cells (S072)
# Summary of the method: as §1
# [5] = system: primary AML patient cells (S002)
# Summary of the method: as §1
# [6] = system: primary MCL patient cells (S068)
# Summary of the method: as §1
# [7] = system: primary AML patient cells (S091)
# Summary of the method: as §1
# [8] = system: primary AML patient cells (S055)
# Summary of the method: as §1
# [9] = system: primary MCL patient cells (S053)
# Summary of the method: as §1
# [10] = system: primary AML patient cells (S017)
# Summary of the method: as §1
# [11] = system: primary AML patient cells (S025)
# Summary of the method: as §1
# [12] = system: primary AML patient cells (S060)
# Summary of the method: as §1
# [13] = system: primary AML patient cells (S021)
# Summary of the method: as §1
# [14] = system: primary T-PLL patient cells (S008)
# Summary of the method: as §1
# [15] = system: primary B-PLL patient cells (S016)
# Summary of the method: as §1
# [16] = system: primary AML patient cells (S089)
# Summary of the method: as §1
# [17] = system: primary BL patient cells (S005)
# Summary of the method: as §1
# [18] = system: primary AML patient cells (S009)
# Summary of the method: as §1
# [19] = system: primary CLL patient cells (S043)
# Summary of the method: as §1
# [20] = system: primary DLBCL patient cells (S082)
# Summary of the method: as §1
structure (smiles),measurement,setting,value
CS(=O)(=O)c1ccc(C(=O)Nc2ccc(Cl)c(-c3ccccn3)c2)c(Cl)c1 [Vismodegib],viability,[1]; 0.024 µM,0.865
same,viability,[1]; 0.12 µM,0.899
same,viability,[1]; 0.6 µM,0.879
same,viability,[1]; 3 µM,0.906
same,viability,[1]; 15 µM,0.891
same,viability,[2]; 0.024 µM,0.926
same,viability,[2]; 0.12 µM,0.946
same,viability,[2]; 0.6 µM,0.915
same,viability,[2]; 3 µM,0.923
same,viability,[2]; 15 µM,1
same,viability,[3]; 0.024 µM,0.927
same,viability,[3]; 0.12 µM,0.979
same,viability,[3]; 0.6 µM,0.91
same,viability,[3]; 3 µM,0.958
same,viability,[3]; 15 µM,1.02
same,viability,[4]; 0.024 µM,0.969
same,viability,[4]; 0.12 µM,0.954
same,viability,[4]; 0.6 µM,0.903
same,viability,[4]; 3 µM,0.902
same,viability,[4]; 15 µM,0.927
same,viability,[5]; 0.024 µM,0.854
same,viability,[5]; 0.12 µM,0.923
same,viability,[5]; 0.6 µM,0.862
same,viability,[5]; 3 µM,0.957
same,viability,[5]; 15 µM,0.87
same,viability,[6]; 0.024 µM,0.891
same,viability,[6]; 0.12 µM,0.929
same,viability,[6]; 0.6 µM,0.949
same,viability,[6]; 3 µM,0.992
same,viability,[6]; 15 µM,1.07
same,viability,[7]; 0.024 µM,0.973
same,viability,[7]; 0.12 µM,0.901
same,viability,[7]; 0.6 µM,0.997
same,viability,[7]; 3 µM,0.996
same,viability,[7]; 15 µM,0.893
same,viability,[8]; 0.024 µM,0.914
same,viability,[8]; 0.12 µM,0.927
same,viability,[8]; 0.6 µM,0.931
same,viability,[8]; 3 µM,0.925
same,viability,[8]; 15 µM,0.964
same,viability,[9]; 0.024 µM,0.915
same,viability,[9]; 0.12 µM,0.932
same,viability,[9]; 0.6 µM,0.893
same,viability,[9]; 3 µM,0.9
same,viability,[9]; 15 µM,1.05
same,viability,[10]; 0.024 µM,0.901
same,viability,[10]; 0.12 µM,0.922
same,viability,[10]; 0.6 µM,0.907
same,viability,[10]; 3 µM,0.927
same,viability,[10]; 15 µM,0.955
same,viability,[11]; 0.024 µM,0.963
same,viability,[11]; 0.12 µM,0.984
same,viability,[11]; 0.6 µM,0.955
same,viability,[11]; 3 µM,0.89
same,viability,[11]; 15 µM,0.902
same,viability,[12]; 0.024 µM,0.945
same,viability,[12]; 0.12 µM,0.966
same,viability,[12]; 0.6 µM,0.97
same,viability,[12]; 3 µM,0.971
same,viability,[12]; 15 µM,0.997
same,viability,[13]; 0.024 µM,0.893
same,viability,[13]; 0.12 µM,0.888
same,viability,[13]; 0.6 µM,0.886
same,viability,[13]; 3 µM,0.858
same,viability,[13]; 15 µM,0.808
same,viability,[14]; 0.024 µM,0.941
same,viability,[14]; 0.12 µM,0.932
same,viability,[14]; 0.6 µM,0.983
same,viability,[14]; 3 µM,0.938
same,viability,[14]; 15 µM,0.926
same,viability,[15]; 0.024 µM,0.862
same,viability,[15]; 0.12 µM,0.917
same,viability,[15]; 0.6 µM,0.921
same,viability,[15]; 3 µM,0.857
same,viability,[15]; 15 µM,0.92
same,viability,[16]; 0.024 µM,0.87
same,viability,[16]; 0.12 µM,0.881
same,viability,[16]; 0.6 µM,0.93
same,viability,[16]; 3 µM,0.98
same,viability,[16]; 15 µM,0.642
same,viability,[17]; 0.024 µM,1.12
same,viability,[17]; 0.12 µM,0.893
same,viability,[17]; 0.6 µM,1.12
same,viability,[17]; 3 µM,1.14
same,viability,[17]; 15 µM,0.824
same,viability,[18]; 0.024 µM,0.913
same,viability,[18]; 0.12 µM,0.918
same,viability,[18]; 0.6 µM,0.944
same,viability,[18]; 3 µM,0.942
same,viability,[18]; 15 µM,0.939
same,viability,[19]; 0.024 µM,0.915
same,viability,[19]; 0.12 µM,0.903
same,viability,[19]; 0.6 µM,0.923
same,viability,[19]; 3 µM,0.922
same,viability,[19]; 15 µM,0.965
same,viability,[20]; 0.024 µM,0.89
same,viability,[20]; 0.12 µM,0.939
same,viability,[20]; 0.6 µM,0.915
same,viability,[20]; 3 µM,0.933
same,viability,[20]; 15 µM,1.07
CC1(COc2ccc3c(c2)ncn3-c2ccc3cccc(N4CCC(N)CC4)c3n2)COC1 [Crenolanib],viability,[1]; 0.016 µM,0.672
same,viability,[1]; 0.08 µM,0.712
same,viability,[1]; 0.4 µM,0.778
same,viability,[1]; 2 µM,1.38
same,viability,[1]; 10 µM,0.103
same,viability,[2]; 0.016 µM,0.948
same,viability,[2]; 0.08 µM,1.09
same,viability,[2]; 0.4 µM,0.953
same,viability,[2]; 2 µM,1.07
same,viability,[2]; 10 µM,0.0325
same,viability,[3]; 0.016 µM,1.06
same,viability,[3]; 0.08 µM,1.09
same,viability,[3]; 0.4 µM,1.04
same,viability,[3]; 2 µM,0.811
same,viability,[3]; 10 µM,0.572
same,viability,[4]; 0.016 µM,0.891
same,viability,[4]; 0.08 µM,0.982
same,viability,[4]; 0.4 µM,0.793
same,viability,[4]; 2 µM,0.742
same,viability,[4]; 10 µM,0.0532
same,viability,[5]; 0.016 µM,0.956
same,viability,[5]; 0.08 µM,1.13
same,viability,[5]; 0.4 µM,1.3
same,viability,[5]; 2 µM,1.5
same,viability,[5]; 10 µM,0.426
same,viability,[6]; 0.016 µM,0.812
same,viability,[6]; 0.08 µM,0.846
same,viability,[6]; 0.4 µM,0.572
same,viability,[6]; 2 µM,0.417
same,viability,[6]; 10 µM,0.031
same,viability,[7]; 0.016 µM,1.03
same,viability,[7]; 0.08 µM,1.32
same,viability,[7]; 0.4 µM,1.37
same,viability,[7]; 2 µM,1.58
same,viability,[7]; 10 µM,0.101
same,viability,[8]; 0.016 µM,1.12
same,viability,[8]; 0.08 µM,1.08
same,viability,[8]; 0.4 µM,1.11
same,viability,[8]; 2 µM,1.12
same,viability,[8]; 10 µM,0.381
same,viability,[9]; 0.016 µM,1.03
same,viability,[9]; 0.08 µM,1.07
same,viability,[9]; 0.4 µM,1.12
same,viability,[9]; 2 µM,0.963
same,viability,[9]; 10 µM,0.348
same,viability,[10]; 0.016 µM,1.05
same,viability,[10]; 0.08 µM,1.09
same,viability,[10]; 0.4 µM,1.12
same,viability,[10]; 2 µM,1.16
same,viability,[10]; 10 µM,0.109
same,viability,[11]; 0.016 µM,0.983
same,viability,[11]; 0.08 µM,1.12
same,viability,[11]; 0.4 µM,1.29
same,viability,[11]; 2 µM,1.29
same,viability,[11]; 10 µM,0.173
same,viability,[12]; 0.016 µM,1.12
same,viability,[12]; 0.08 µM,1.1
same,viability,[12]; 0.4 µM,1.05
same,viability,[12]; 2 µM,1.02
same,viability,[12]; 10 µM,0.0351
same,viability,[13]; 0.016 µM,1.04
same,viability,[13]; 0.08 µM,1.15
same,viability,[13]; 0.4 µM,1.17
same,viability,[13]; 2 µM,0.984
same,viability,[13]; 10 µM,0.453
same,viability,[14]; 0.016 µM,0.989
same,viability,[14]; 0.08 µM,1.04
same,viability,[14]; 0.4 µM,1.06
same,viability,[14]; 2 µM,1.07
same,viability,[14]; 10 µM,0.107
same,viability,[15]; 0.016 µM,1.04
same,viability,[15]; 0.08 µM,1.24
same,viability,[15]; 0.4 µM,0.794
same,viability,[15]; 2 µM,0.553
same,viability,[15]; 10 µM,0.0382
same,viability,[16]; 0.016 µM,0.824
same,viability,[16]; 0.08 µM,0.612
same,viability,[16]; 0.4 µM,0.835
same,viability,[16]; 2 µM,0.835
same,viability,[16]; 10 µM,0.0567
same,viability,[17]; 0.016 µM,0.9
same,viability,[17]; 0.08 µM,0.959
same,viability,[17]; 0.4 µM,0.896
same,viability,[17]; 2 µM,0.913
same,viability,[17]; 10 µM,0.414
same,viability,[18]; 0.016 µM,0.926
same,viability,[18]; 0.08 µM,0.979
same,viability,[18]; 0.4 µM,0.921
same,viability,[18]; 2 µM,2.2
same,viability,[18]; 10 µM,0.301
same,viability,[19]; 0.016 µM,0.963
same,viability,[19]; 0.08 µM,1.15
same,viability,[19]; 0.4 µM,1.17
same,viability,[19]; 2 µM,1.06
same,viability,[19]; 10 µM,0.0329
same,viability,[20]; 0.016 µM,1
same,viability,[20]; 0.08 µM,1.12
same,viability,[20]; 0.4 µM,1.07
same,viability,[20]; 2 µM,0.624
same,viability,[20]; 10 µM,0.0262
